Blank lines part the entries; values can stand above or below the molecule they belong to.
Test system: AMPA-kainate receptors
Assay: Patch-clamp (whole-cell voltage-clamp) recording of kainate-evoked currents in primary cultures of cortical neurons
Assay type: cell-based
Settings: rat cortical neurons; for type of allosteric modulation of the AMPA receptor: effect on current induced by Kainate; for Variation in the current induced by Kainate, %: compound at 10 µM, mean ± SE (n = 4-6)
Protocol: The pharmacological studies were conducted using the patch-clamp technique on primary cultures of cortical neurons.
The primary neuronal cultures were obtained from 1-day-old Sprague-Dawley rats. The cells were dispersed with trypsin (0.24 mg/ml) and plated out at a density of 10^6 cells/ml on 35mm Petri dishes pretreated with poly-L-lysine (10 µg/ml). The cells were cultivated in Eagle's Basal Medium with the addition of 10% foetal calf serum, 2 mM glutamine and 100 µg/ml gentamicin, and stored in an incubator at 37°C in 5% carbon dioxide.
To prevent astroglial proliferation, cytosine arabinofuranoside was added (1-10 µM) to the cultures 24h after plating out.
The patch-clamp recordings were performed on a single cell after 7 days in culture using the voltage-clamp technique in whole-cell configuration (Hamill OP, Marty A, Neher E, Sakmann B, Sigworth FJ (1981): Improved patchclamp techniques for high-resolution current recording from cell and cell-free membrane patches. Pflugers Arch, 85-100). […] The currents were amplified with an Axopatch 1 D amplifier (Axon Instruments, Foster City, CA), filtered at 5 kHz and digitised at 10 kHz using the pClamp software (Axon Instruments, Foster City, CA).
The intracellular solutions contained: KCI 140mM, MgCl2 3mM, EGTA 5mM, HEPES 5mM, ATP-Na 2mM, and were brought to pH 7.3 with KOH. The cells were continuously perfused with an external solution containing: NaCl 145mM, KCI 5mM, CaCl2 1mM, HEPES 5mM, glucose 5mM, saccharose 20Mm, and brought to pH 7.4 with NaOH.
The compounds tested were dissolved in DMSO and diluted to the final concentration in the extracellular solution. (The DMSO in the final concentration is less than 0.1%.) The kainate (SIGMA) was dissolved in the extracellular solution. All of the substances were applied directly by gravity through a "Y-tube" perfusion system (Murase K, Ryu PD, Randic M (1989). Excitatory and inhibitory amino acids and peptide-induced responses in acutely isolated rat spinal dorsal horn neurons. Neurosci Lett 103, 56-63).
The electrophysiological data was analysed using the software pCLAMP 6.3 (Axon Instruments).
The compounds according to the invention have proven to be potent allosteric modulators of the response mediated by AMPA-kainate receptors. […] The values are expressed as the mean ± SE (n = 4-6).

EC50 (potentiation of currents induced by Kainate, calculated from dose/response data of Figure 1): 1100 nM
SMILES: CC1Nc2c(-c3ccoc3)cc(Cl)cc2S(=O)(=O)N1 (stereo not drawn) [(1), 7-chloro-5-(3-furyl)-3-methyl-3,4-dihydro-2H-1,2,4-benzothiadiazine 1,1-dioxide]
type of allosteric modulation of the AMPA receptor (10 µM): positive allosteric modulator | increase of the current induced by Kainate (10 µM, text statement on the data of Table 1): around 360 times | EC2X (i.e. the concentration at which the AMPA receptor currents are potentiated 2 times) (calculated from dose/response data of Figure 1): 500 nM | Variation in the current induced by Kainate, %: 358±80%

SMILES: CC1Nc2c(-c3ccsc3)cc(Cl)cc2S(=O)(=O)N1 (stereo not drawn) [(2), 7-chloro-3-methyl-5-thien-3-yl-3,4-dihydro-2H-1,2,4-benzothiadiazine 1,1-dioxide]
type of allosteric modulation of the AMPA receptor (10 µM): positive allosteric modulator | Variation in the current induced by Kainate, %: 214±41%

SMILES: CC1Nc2c(-c3ccco3)cc(Cl)cc2S(=O)(=O)N1 (stereo not drawn) [(3), 7-chloro-5-(2-furyl)-3-methyl-3,4-dihydro-2H-1,2,4-benzothiadiazine 1,1-dioxide]
type of allosteric modulation of the AMPA receptor (10 µM): positive allosteric modulator | Variation in the current induced by Kainate, %: 80±16%

SMILES: CCC1Nc2c(-c3ccco3)cc(Cl)cc2S(=O)(=O)N1 (stereo not drawn) [(4), 7-chloro-5-(2-furyl)-3-ethyl-3,4-dihydro-2H-1,2,4-benzothiadiazine 1,1-dioxide]
type of allosteric modulation of the AMPA receptor (10 µM): negative allosteric modulators | Variation in the current induced by Kainate, %: -32±12%

SMILES: O=S1(=O)NCNc2c(-c3ccco3)cc(Cl)cc21 [(5), 7-chloro-5-(2-furyl)-3,4-dihydro-2H-1,2,4-benzothiadiazine 1,1-dioxide]
type of allosteric modulation of the AMPA receptor (10 µM): positive allosteric modulator | Variation in the current induced by Kainate, %: 20±5%

SMILES: CC1=Nc2c(-c3ccco3)cc(Cl)cc2S(=O)(=O)N1 [(6), 7-chloro-5-(2-furyl)-3-methyl-1,2,4-benzothiadiazine 1,1-dioxide]
type of allosteric modulation of the AMPA receptor (10 µM): negative allosteric modulators | Variation in the current induced by Kainate, %: -21±9%
